# Where two headings read alike, the source gives them in different places.
# Tests used:
# [1] = logP; format: physicochemical; conditions: Table 1; method not described
# [2] = tested on: RPMI-7951; assay: Cytotoxicity assay (MTS, 72 h); format: cell-based; conditions: Homo sapiens, Table 1, read-out: IC50 (nM) Melanoma RPMI-7951
# [3] = tested on: MDA-MB-231; assay: Cytotoxicity assay (MTS, 72 h); format: cell-based; conditions: Homo sapiens
# [4] = tested on: MDA-MB-468; assay: Cytotoxicity assay (MTS, 72 h); format: cell-based, human; conditions: Homo sapiens, MDA-MB-468; Table 1; read-out: IC50 (nM) Breast MDA-MB-468
# [5] = tested on: M14; assay: Cytotoxicity assay (MTS, 72 h); conditions: Homo sapiens
# [6] = tested on: MDA-MB-453; assay: Cytotoxicity assay (MTS, 72 h); format: cell-based, human
# [7] = tested on: A375; assay: Cytotoxicity assay (MTS, 72 h);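 note: compounds tested from 0.1 nM up to 3 µM in four replicate wells, with absorbance read at 490 nm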
# [8] = tested on: Mia PaCa-2; assay: Cytotoxicity assay (MTS, 72 h); format: cell-based; conditions: Homo sapiens
# [9] = tested on: PANC-1; assay: Cytotoxicity assay (MTS, 72 h); format: cell-based; conditions: Homo sapiens
# Procedure: Mia PaCa-2 and PANC-1 cells were seeded in 96-well plates at 4000 and 5000 cells per well, respectively.
# Cytotoxicity Assay. […] Each experiment consisted of four replicates.
# [10] = MDA-MB-231, read-out: IC50 (nM) Breast MDA-MB-231, Table 1
# [11] = M14, read-out: IC50 (nM) Melanoma M14
# [12] = Homo sapiens, MDA-MB-453, Table 1, read-out: IC50 (nM) Breast MDA-MB-453
# [13] = Homo sapiens, A-375, read-out: IC50 (nM) Melanoma A375, Table 1
# [14] = MDA-MB-231, read-out: IC50 (nM) Breast Cancer MDA-MB-231, Table 6
# [15] = Table 6, cells printed in μM, read-out: IC50 Pancreatic cancer Mia PaCa-2
# [16] = M14, read-out: IC50 (nM) Melanoma Cancer M14
# [17] = Homo sapiens, MDA-MB-453, Table 6, read-out: IC50 (nM) Breast Cancer MDA-MB-453
# [18] = Table 6, cells printed in μM, read-out: IC50 Pancreatic cancer PANC-1
# [19] = Homo sapiens, A-375, read-out: IC50 (nM) Melanoma Cancer A375, Table 6
# [20] = Table 6, read-out: IC50 (nM) Pancreatic cancer Mia PaCa-2
SMILES,logP [1],IC50 [2],"IC50 [3, 10]",IC50 [4],"IC50 [5, 11]","IC50 [7, 13]","IC50 [3, 14]","IC50 [8, 15]","IC50 [5, 16]","IC50 [6, 17]","IC50 [9, 18]","IC50 [7, 19]",further results
"COc1ccc2c(c1)NC(=O)CN2c1nc(Cl)nc2ccoc12 [Compound 5j, 4-(2-chlorofuro[3,2-d]pyrimidin-4-yl)-7-methoxy-3,4-dihydroquinoxalin-2(1H)-one]",1.6,14.8 ± 3.7 nM,5.4 ± 0.6 nM,6.4 ± 1.3 nM,5.6 ± 1.2 nM,11.9 ± 3.2 nM,–,–,–,–,–,–,"IC50 [6, 12]: 1.4 ± 0.3 nM"
"COc1ccc2c(c1)NC(=O)CN2c1nc(N(C)C)nc2c1CCC2 [Compound 12i, 4-(2-(dimethylamino)-6,7-dihydro-5H-cyclopenta[d]pyrimidin-4-yl)-7-methoxy-3,4-dihydroquinoxalin-2(1H)-one]",–,–,–,–,–,–,36.9 ± 6.1 nM,> 1.25 µM,21.1 ± 4.1 nM,16.1 ± 4.7 nM,> 1.25 µM,~22.6 nM,"IC50 ([7]; read-out: IC50 (nM) Melanoma Cancer A375, Table 6): 22 ± 4.5 nM"
"Cc1nc2c(c(N3CC(=O)Nc4cc(OC(F)(F)F)ccc43)n1)CCC2 [Compound 12o, 4-(2-methyl-6,7-dihydro-5H-cyclopenta[d]pyrimidin-4-yl)-7-(trifluoromethoxy)-3,4-dihydroquinoxalin-2(1H)-one]",–,–,–,–,–,–,75.8 ± 13.1 nM,–,41.9 ± 5.6 nM,34.9 ± 6.4 nM,–,~43.1 nM,"IC50 [8, 20]: 0.0835 ± 0.0128 µM; IC50 ([9]; Table 6, read-out: IC50 (nM) Pancreatic cancer PANC-1): 0.0424 ± 0.0085 µM"
"COc1ccc2c(c1)nc(-c1ccc(OC)c(OC)c1OC)n2-c1nc(SC)nc2c1CCC2 [Compound 19, 5-methoxy-1-(2-(methylthio)-6,7-dihydro-5H-cyclopenta[d]pyrimidin-4-yl)-2-(2,3,4-trimethoxyphenyl)-1H-benzo[d]imidazole]",–,–,–,–,–,–,–,–,–,–,> 1.25 µM,–,"IC50 ([3]; MDA-MB-231, read-out: IC50 Breast Cancer MDA-MB-231, Table 6, cells printed in μM): > 3000 nM; IC50 ([8]; Table 6, cell printed in MM, read-out: IC50 Pancreatic cancer Mia PaCa-2): > 1.25 µM; IC50 ([5]; M14, read-out: IC50 Melanoma Cancer M14): > 3000 nM; IC50 ([6]; Homo sapiens, MDA-MB-453, Table 6, cells printed in μM, read-out: IC50 Breast Cancer MDA-MB-453): > 3000 nM; IC50 ([7]; Homo sapiens, A-375, read-out: IC50 Melanoma Cancer A375, Table 6, cells printed in μM): > 3000 nM"
"COc1ccc2c(c1)NC(=O)CN2c1nc(N2CCCCC2)nc2c1CCC2 [Compound 12f, 7-methoxy-4-(2-(piperidin-1-yl)-6,7-dihydro-5H-cyclopenta[d]pyrimidin-4-yl)-3,4-dihydroquinoxalin-2(1H)-one]",–,–,–,–,–,–,690 ± 147 nM,> 1.25 µM,601 ± 117 nM,499 ± 126 nM,> 1.25 µM,~436 nM,–
"COc1ccc2c(c1)NC(=O)CN2c1nc(N2CCN(C)CC2)nc2c1CCC2 [Compound 12d, 7-methoxy-4-(2-(4-methylpiperazin-1-yl)-6,7-dihydro-5H-cyclopenta[d]pyrimidin-4-yl)-3,4-dihydroquinoxalin-2(1H)-one]",–,–,–,–,–,–,1860 ± 650 nM,> 1.25 µM,574 ± 124 nM,416 ± 107 nM,> 1.25 µM,~543 nM,–
"COc1ccc2c(c1)NC(=O)CN2c1ncnc2c1CCC2 [Compound 5n, 4-(6,7-dihydro-5H-cyclopenta[d]pyrimidin-4-yl)-7-methoxy-3,4-dihydroquinoxalin-2(1H)-one]",2.05,14 ± 3.9 nM,54 ± 9.9 nM,15.6 ± 3.8 nM,19.1 ± 5.3 nM,13.4 ± 1.9 nM,–,–,–,–,–,–,"IC50 [6, 12]: 7.3 ± 1.5 nM"
"Cc1nc2c(c(N3CC(=O)Nc4cc(O)ccc43)n1)CCC2 [Compound 12q, 7-hydroxy-4-(2-methyl-6,7-dihydro-5H-cyclopenta[d]pyrimidin-4-yl)-3,4-dihydroquinoxalin-2(1H)-one]",–,–,–,–,–,–,25.9 ± 4.9 nM,–,21.8 ± 4.5 nM,13.5 ± 3.3 nM,–,~19 nM,"IC50 [8, 20]: 0.0343 ± 0.0053 µM"
"COc1ccc2c(c1)NC(=O)CN2c1nc(O)nc2c1CCC2 [Compound 12a, 4-(2-hydroxy-6,7-dihydro-5H-cyclopenta[d]pyrimidin-4-yl)-7-methoxy-3,4-dihydroquinoxalin-2(1H)-one]",–,–,–,–,–,–,1200 ± 346 nM,> 1.25 µM,662 ± 126 nM,688 ± 186 nM,> 1.25 µM,~646 nM,–
"COc1ccc2c(c1)NC(=O)CN2c1nc(Cl)nc2c1CCCC2 [Compound 5o, 4-(2-chloro-5,6,7,8-tetrahydroquinazolin-4-yl)-7-methoxy-3,4-dihydroquinoxalin-2(1H)-one]",3.16,> 1000 nM,> 1000 nM,> 1000 nM,> 1000 nM,> 1000 nM,–,–,–,–,–,–,"IC50 ([6]; Table 1, read-out: IC50 (nM) Breast MDA-MB-453): 256 ± 59.5 nM"
